In US10654837B2, “Sulphamoylaryl derivatives and use thereof as medicaments for the treatment of liver fibrosis” (Janssen Pharmaceutica NV, priority 2017, dated 2020):

Biological target: T1, 5HTR2B (Homo sapiens, UniProt P41595)
T1 construct: host or cells: human Maverick/293 cells
Test: 5HTR2B antagonist activity, calcium mobilization assay in human Maverick/293 cells (serotonin as agonist)
Type: cell-based
Conditions: intracellular calcium, emission 525 nm, read-out: Ca assay IC50
Summary of the method: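 Calcium mobilization read over 80 s at ex 485/em 525 nm after serotonin addition. Before that, 2 h serum-free starvation, 50 min dye loading at 37 °C, and 15-30 min antagonist exposure. IC50 from sigmoidal fit of peak % inhibition.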

T1 sequence (P41595 whole entry): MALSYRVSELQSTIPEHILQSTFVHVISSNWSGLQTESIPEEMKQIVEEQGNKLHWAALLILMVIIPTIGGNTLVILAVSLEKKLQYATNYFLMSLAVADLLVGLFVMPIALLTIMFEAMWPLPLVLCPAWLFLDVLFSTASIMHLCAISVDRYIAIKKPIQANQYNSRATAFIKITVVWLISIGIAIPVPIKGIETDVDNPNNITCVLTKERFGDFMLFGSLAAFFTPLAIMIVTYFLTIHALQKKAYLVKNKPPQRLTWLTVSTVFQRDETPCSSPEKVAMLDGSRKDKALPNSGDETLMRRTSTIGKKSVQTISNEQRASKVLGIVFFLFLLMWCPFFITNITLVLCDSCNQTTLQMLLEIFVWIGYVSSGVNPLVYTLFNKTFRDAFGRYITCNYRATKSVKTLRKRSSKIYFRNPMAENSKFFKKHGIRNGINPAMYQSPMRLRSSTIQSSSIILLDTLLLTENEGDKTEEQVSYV

Compared with CNS(=O)(=O)c1ccc(OC)c(C(=O)Nc2ccc(F)c(C)n2)c1 [Compound 24], CCCOc1ccc(S(=O)(=O)N[C@H]2CCOC2)cc1C(=O)Nc1ccc(F)c(C)n1 [Compound 199, (S)—N-(5-fluoro-6-methylpyridin-2-yl)-2-propoxy-5-(N-(tetrahydrofuran-3-yl)sulfamoyl) benzamide] is 13-fold lower in IC50: 47 nM for the first, 3.7 nM for the second.

Going from COc1ccc(S(=O)(=O)N[C@H]2C[C@H](O)C2)cc1C(=O)Nc1ccc(F)c(C(F)F)n1 [Compound 174a, N-(6-(Difluoromethyl)-5-fluoropyridin-2-yl)-5-(N-((trans)-3-hydroxycyclobutyl)sulfamoyl)-2-methoxybenzamide] to COc1ccc(S(=O)(=O)N[C@H]2C[C@@H](O)C2)cc1C(=O)Nc1ccc(F)c(C)c1 [Compound 6b, N-(4-Fluoro-3-methylphenyl)-5-(N-((cis)-3-hydroxycyclobutyl)sulfamoyl)-2-methoxybenzamide], the IC50 falls from 3.9 nM to 1.9 nM (2.1-fold).

Going from COc1ccc(S(=O)(=O)N[C@H]2CCOC2)cc1C(=O)Nc1c(F)cc(F)cc1F [Compound 76, (S)-2-Methoxy-5-(N-(tetrahydrofuran-3-yl)sulfamoyl)-N-(2,4,6-trifluorophenyl) benzamide] to COc1ccc(S(=O)(=O)N[C@H]2CCOC2)cc1C(=O)Nc1ccc(F)c(F)c1F [Compound 88, (S)-2-Methoxy-5-(N-(tetrahydrofuran-3-yl)sulfamoyl)-N-(2,3,4-trifluorophenyl) benzamide], the IC50 rises from 3.1 nM to 28 nM (9-fold).

First: COc1ccc(S(=O)(=O)N[C@H]2CCOC2)cc1C(=O)Nc1cc(F)cc(Cl)c1 [Compound 68, (S)—N-(3-Chloro-5-fluorophenyl)-2-methoxy-5-(N-(tetrahydrofuran-3-yl)sulfamoyl)benzamide]
Second: COc1ccc(S(=O)(=O)N[C@H]2CCOC2)cc1C(=O)Nc1cccc(F)c1 [Compound 100, (S)—N-(3-Fluorophenyl)-2-methoxy-5-(N-(tetrahydrofuran-3-yl)sulfamoyl) benzamide]
The IC50 of the first is 1.6-fold lower: 2.9 nM for the first, 4.6 nM for the second. The first is the more potent here.

First: COc1ccc(S(=O)(=O)N[C@H]2CCOC2)cc1C(=O)Nc1ccc(F)cc1 [Compound 158, (S)—N-(4-Fluorophenyl)-2-methoxy-5-(N-(tetrahydrofuran-3-yl)sulfamoyl) benzamide]
Second: COc1ccc(S(=O)(=O)NC2CCCC2)cc1C(=O)Nc1ccc(F)cc1 [Compound 51, 5-(N-Cyclopentylsulfamoyl)-N-(4-fluorophenyl)-2-methoxybenzamide]
The IC50 of the first is 5.9-fold lower: 0.17 nM for the first, 1 nM for the second. The first is the more potent here.

Going from COCCOC[C@H](C)NS(=O)(=O)c1ccc(OC)c(C(=O)Nc2ccc(F)cc2F)c1 [Compound 147a, (S)—N-(2,4-Difluorophenyl)-2-methoxy-5-(N-(1-(2-methoxyethoxy)propan-2-yl)sulfamoyl)benzamide] to COc1ccc(S(=O)(=O)N[C@@H](C)CO)cc1C(=O)Nc1ccc(F)c(C(F)F)c1 [Compound 35a, (S)—N-(3-(Difluoromethyl)-4-fluorophenyl)-5-(N-(1-hydroxypropan-2-yl)sulfamoyl)-2-methoxybenzamide], the IC50 falls from 3.4 nM to 0.7 nM (4.9-fold). The second is the more potent here.

Compared with COc1c(F)cc(S(=O)(=O)N[C@H]2CCOC2)cc1C(=O)Nc1ccc(F)c(C)c1 [Compound 200, (S)-3-fluoro-N-(4-fluoro-3-methylphenyl)-2-methoxy-5-(N-(tetrahydrofuran-3-yl)sulfamoyl)benzamide], COc1ccc(S(=O)(=O)N[C@H]2CCOC2)cc1C(=O)Nc1cc(C)c(F)cn1 [Compound 161, (S)—N-(5-Fluoro-4-methylpyridin-2-yl)-2-methoxy-5-(N-(tetrahydrofuran-3-yl)sulfamoyl)benzamide] is 24-fold higher in IC50: 3.3 nM for the first, 79 nM for the second. The first is the more potent here.

Going from COc1ccc(S(=O)(=O)N[C@H]2CCOC2)cc1C(=O)Nc1nc(C)cs1 [Compound 82, (S)-2-methoxy-N-(4-methylthiazol-2-yl)-5-(N-(tetrahydrofuran-3-yl)sulfamoyl) benzamide] to COc1ccc(S(=O)(=O)N[C@H]2CCOC2)cc1C(=O)Nc1ccn(C)n1 [Compound 79, (S)-2-Methoxy-N-(1-methyl-1H-pyrazol-3-yl)-5-(N-(tetrahydrofuran-3-yl)sulfamoyl)benzamide], the IC50 rises from 1.1 nM to 98 nM (89-fold).

Compared with COc1ccc(S(=O)(=O)N[C@H](C)CC#N)cc1C(=O)Nc1ccc(F)c(C)c1 (single isomer, unassigned) [Compound 11b, (R*)-5-(N-(1-Cyanopropan-2-yl)sulfamoyl)-N-(4-fluoro-3-methylphenyl-2-methoxybenzamide], COc1ccc(S(=O)(=O)NC(C)CC#N)cc1C(=O)Nc1ccc(F)c(C)c1 (single isomer, unassigned) [Compound 11a, (S*)-5-(N-(1-Cyanopropan-2-yl)sulfamoyl)-N-(4-fluoro-3-methylphenyl)-2-methoxybenzamide] is 13-fold higher in IC50: 5.1 nM for the first, 68 nM for the second.

First: COc1ccc(S(=O)(=O)N[C@H]2CCOC2)cc1C(=O)Nc1cc(F)c(C#N)cc1F [Compound 98, (S)—N-(4-Cyano-2,5-difluorophenyl)-2-methoxy-5-(N-(tetrahydrofuran-3-yl)sulfamoyl)benzamide]
Second: COc1cc(F)ccc1NC(=O)c1cc(S(=O)(=O)N[C@H]2CCOC2)ccc1OC [Compound 135, (S)—N-(4-fluoro-2-methoxyphenyl)-2-methoxy-5-(N-(tetrahydrofuran-3-yl)sulfamoyl)benzamide]
The IC50 of the first is 370-fold higher: 37 nM for the first, 0.1 nM for the second. The second is the more potent here.

Going from [2H]C([2H])([2H])Oc1ccc(S(=O)(=O)N[C@H]2CCOC2)cc1C(=O)Nc1ccc(F)cn1 [Compound 193, (S)—N-(5-fluoropyridin-2-yl)-2-(methoxy-d3)-5-(N-(tetrahydrofuran-3-yl)sulfamoyl)benzamide] to COc1ccc(S(=O)(=O)N[C@H]2CCOC2)cc1C(=O)Nc1cccc(OC(F)F)c1 [Compound 107, (S)—N-(3-(Difluoromethoxy)phenyl)-2-methoxy-5-(N-(tetrahydrofuran-3-yl)sulfamoyl)benzamide], the IC50 rises from 3.2 nM to 27 nM (8.4-fold). The first is the more potent here.

First: COc1ccc(S(=O)(=O)NC2CCC2)cc1C(=O)Nc1ccc(F)c(C)c1 [Compound 63, 5-(N-Cyclobutylsulfamoyl)-N-(4-fluoro-3-methylphenyl)-2-methoxybenzamide]
Second: COc1ccc(S(=O)(=O)NC(C)C(N)=O)cc1C(=O)Nc1ccc(F)c(C)c1 (stereo not shown) [Compound 12, 5-(N-(1-Amino-1-oxopropan-2-yl)sulfamoyl)-N-(4-fluoro-3-methylphenyl)-2-methoxybenzamide]
The IC50 of the first is 7.2-fold lower: 1.3 nM for the first, 9.3 nM for the second.

Going from COc1ccc(S(=O)(=O)N[C@@H](C)CC#N)cc1C(=O)Nc1ccccc1Cl (single isomer, unassigned) [Compound 60a, (S*)—N-(2-Chlorophenyl)-5-(N-(1-cyanopropan-2-yl)sulfamoyl)-2-methoxy benzamide] to COc1ccc(S(=O)(=O)NC2CC[C@H](O)C2)cc1C(=O)Nc1ccccc1Cl (stereo partly shown) [Compound 57a], the IC50 falls from 0.4 nM to 0.2 nM (2-fold).

First: COc1ccc(S(=O)(=O)N[C@@H]2CCNC2)cc1C(=O)Nc1ccc(F)cc1 [Compound 180, (R)—N-(4-Fluorophenyl)-2-methoxy-5-(N-(pyrrolidin-3-yl)sulfamoyl)benzamide]
Second: COc1ccc(S(=O)(=O)NC2(C(F)(F)F)CC2)cc1C(=O)Nc1ccc(F)cc1 [Compound 50, N-(4-Fluorophenyl)-2-methoxy-5-(N-(1-(trifluoromethyl)cyclopropyl)sulfamoyl)benzamide]
The IC50 of the first is 2.3-fold lower: 3.3 nM for the first, 7.6 nM for the second.
